Measurements reported in ChEMBL document CHEMBL1141305, “Daphnipaxianines A-D, alkaloids from Daphniphyllum paxianum” (J Nat Prod, 2007).
Activity calls are given as the source filed them. The calls are words filed in the database; no cut-off is given here.

These molecules were tested on HCT-116 (assay: Cytotoxicity against human HCT116 cells).
Type: functional, cell-based

Row | SMILES | Activity
1 | COC(=O)[C@@H]1C[C@]23CN4CC(CCC5(CCC1C52)C4)[C@@]31CC[C@](OC)(C(C)C)OC1 (some centres not stated) | inactive
2 | C[C@@H]1CN2C[C@H]3CCC4=C5[C@](O)(CC4)CC[C@@]54C(=O)[C@@H]1C[C@@H]2[C@@]34C | inactive
3 | C[C@@H]1CN2C[C@H]3CC[C@]4(O)CC(=O)C5=C4[C@@]4(CC5)C(=O)[C@@H]1C[C@@H]2[C@@]34C | inactive
4 | C[C@@H]1CN2C[C@H]3CC[C@@]4(O)CC(=O)C5=C4[C@@]4(CC5)C(=O)[C@@H]1C[C@@H]2[C@@]34C | inactive

The molecules below were run on HCT-116 (assay: Cytotoxicity against human Bax deficient HCT116 cells).
Type: functional, cell-based

Row | SMILES | Activity
5 | COC(=O)[C@@H]1C[C@]23CN4CC(CCC5(CCC1C52)C4)[C@@]31CC[C@](OC)(C(C)C)OC1 (some centres not stated) | inactive
6 | C[C@@H]1CN2C[C@H]3CCC4=C5[C@](O)(CC4)CC[C@@]54C(=O)[C@@H]1C[C@@H]2[C@@]34C | inactive
7 | C[C@@H]1CN2C[C@H]3CC[C@]4(O)CC(=O)C5=C4[C@@]4(CC5)C(=O)[C@@H]1C[C@@H]2[C@@]34C | inactive
8 | C[C@@H]1CN2C[C@H]3CC[C@@]4(O)CC(=O)C5=C4[C@@]4(CC5)C(=O)[C@@H]1C[C@@H]2[C@@]34C | inactive

These molecules were tested on MEF (assay: Cytotoxicity against mouse Bax and Bak deficient MEF cells).
Type: functional, cell-based

Row | SMILES | Activity
9 | COC(=O)[C@@H]1C[C@]23CN4CC(CCC5(CCC1C52)C4)[C@@]31CC[C@](OC)(C(C)C)OC1 (some centres not stated) | inactive
10 | C[C@@H]1CN2C[C@H]3CCC4=C5[C@](O)(CC4)CC[C@@]54C(=O)[C@@H]1C[C@@H]2[C@@]34C | inactive
11 | C[C@@H]1CN2C[C@H]3CC[C@]4(O)CC(=O)C5=C4[C@@]4(CC5)C(=O)[C@@H]1C[C@@H]2[C@@]34C | inactive
12 | C[C@@H]1CN2C[C@H]3CC[C@@]4(O)CC(=O)C5=C4[C@@]4(CC5)C(=O)[C@@H]1C[C@@H]2[C@@]34C | inactive
